Here are results for two molecules from patent US20130022673A1, “ENHANCEMENT OF MAGNESIUM UPTAKE IN MAMMALS” (priority 2003, published 2013).

For series [1] the following is noted: oral intake; 'it is believed'; cited from earlier work.
Series [2] deals with 'restless legs' and intermittent leg cramps. As to conditions: Week 3-4; scale 0 to 100. The text has this: A person suffered from ‘restless legs’ and intermittent leg cramps during sleep.
Each week the subject was asked to rate the intensity of the problem on a consistent rating scale with ‘0’ indicating no problem and ‘100’ indicating the most severe expression of the condition.

`[O]=[Mg]` [magnesium oxide]: in series [1], the “fraction of elemental magnesium absorbed for use by the body” value is listed as 3 to 12%.
As to choline citrate, in series [2], the “Ave. intensity of leg cramp related difficulty” value turned out to be 83.
